Details in the first data set: not given
Consider `Oc1c(I)cc(I)cc1I`, for which the melting point worked out at 160 °C.
As to `CC(=O)Oc1ccccc1C(=O)O`, the log10 vapour pressure (mmHg) is -4.6, the melting point was determined as 135 °C and the ready biodegradability entry is recorded as “readily biodegradable”.
Molecule `COc1cc2cc(c1Cl)N(C)C(=O)C[C@H](OC(=O)[C@H](C)N(C)C(C)=O)[C@]1(C)O[C@H]1[C@H](C)[C@@H]1C[C@@](O)(NC(=O)O1)C(OC)C=CC=C(C)C2` (stereo partly drawn) gave a melting point of 172 °C.
The same measure, in the same setting: to `COc1cc2c(cc1OC)C(CCc1ccc(Cl)cc1)N(C)CC2` (stereo not drawn) belongs 110 °C.
On to `O=C(Nc1ccc(Cc2ccc(NC(=O)N3CC3)cc2)cc1)N1CC1`, for which the ready biodegradability entry was “not readily biodegradable”.
With `COC(=O)C(C)N(C(=O)c1ccco1)c1c(C)cccc1C` (stereo not drawn), the log10 vapour pressure (mmHg) is -6.28 and the melting point was 70 °C.
For the molecule `COc1ccccc1C1CCCCC1`, the boiling point was found to be 268 °C.
`O=c1c(I)cn(CC(O)CO)cc1I` (stereo not drawn) had a melting point of 161 °C.
Same read-out and setting: the value for `O=c1c(O)c(-c2ccc(O)c(O)c2)oc2cc(O)cc(O)c12` was 316 °C.
On to `C=COC(=O)C(C)C`, for which the boiling point came to 104 °C.
The same measure, in the same setting: the value for `FC(F)(F)c1ccccc1Br` was 168 °C.
As to `c1ccc2c(c1)Cc1ccccc1-2`, the boiling point turned out to be 295 °C, the log10 Henry constant (atm·m³/mol) is -4.02, the log10 Koa amounted to 6.79 and the log10 Koc (L/kg) came to 3.7. Also, the log10 biodegradation half-life (days) came to 1.64, the log10 vapour pressure (mmHg) is -3.22, the melting point amounted to 115 °C and the ready biodegradability result was “not readily biodegradable”.
For the molecule `CC(C)c1ccc(C(=O)O)cc1`, the melting point was determined as 118 °C and the ready biodegradability entry is “readily biodegradable”.
`CC(=O)c1c(O)c(C)c(O)c2c1OC1=CC(=O)C(C(C)=O)C(=O)C12C` (stereo not drawn) returned a melting point of 204 °C.
Same read-out and setting: the value for `CNC(=O)Oc1ccc2c(c1)[C@]1(C)CCN(C)[C@@H]1N2C` was 106 °C.
Still for that read-out and setting: to `COc1ccc(/C=C/C(=O)Nc2ccccc2C(=O)O)cc1OC` belongs 212 °C.
In turn, `CC1=CCCC=C1` came in with a boiling point of 108 °C.
Turning to `Cc1cnc(C)c(C)c1`, the boiling point stood at 184 °C.
As for `CCCCCCC(O)CCCCCCCCCCC(=O)O` (stereo not drawn), the ready biodegradability result is given as “readily biodegradable”.
Take `COc1ccc2c3c1O[C@H]1[C@@H](O)C=C[C@H]4[C@@H](C2)N(C)CC[C@@]341`: the melting point is 158 °C.
`CCON=O` yielded a boiling point of 18 °C.
On to `Cc1ccc2c(c1)C(=O)c1ccccc1C2=O`, for which the melting point came out at 177 °C.
`BrCc1ccccc1Br`: the melting point worked out at 31 °C.
The molecule `CC(C)CC(C)(C)O` yielded a boiling point of 133 °C.
`OC[C@@H]1CCCNC1` registered a melting point of 61 °C.
The same measure, in the same setting: to `CCOC(=O)COc1cc(Cl)c(Cl)cc1Cl` belongs 64 °C.
In turn, `CC(=O)c1ccc[nH]1` came in with a boiling point of 220 °C and a melting point of 90 °C.
Take `CCOc1ccc(N)c(N)c1`: the boiling point was found to be 295 °C and the melting point amounted to 71.5 °C.
Molecule `Cc1cncc(C)n1` displayed a boiling point of 156 °C and a melting point of 47.5 °C.
As to `C#CC(C)(C)NC(=O)c1ccccc1`, the log10 Koc (L/kg) stood at 1.54.
For the molecule `CC(C)C1CCC(Cc2ccc(Cl)cc2)C1(O)Cn1cncn1` (stereo not drawn), the log10 vapour pressure (mmHg) is -7.4 and the melting point is 89 °C.
The molecule `CCC1(N2CCCCC2)C(=O)NC(=O)NC1=O` gave a melting point of 215 °C.
Regarding `O=C1C=CC(=O)O1`, the boiling point came to 202 °C, the log10 vapour pressure (mmHg) was -0.602, the melting point was 52.8 °C and the ready biodegradability entry is reported as “readily biodegradable”.
For `CCOC(=O)c1ccc([N+](=O)[O-])cc1`, the boiling point stood at 186 °C, the log10 Koc (L/kg) came out at 2.48 and the melting point came out at 57 °C.
As to `COc1ccc2c(c1)CC[C@@H]1[C@@H]2CC[C@]2(C)[C@@H](O)[C@H](O)C[C@@H]12`, the melting point amounted to 159 °C.
For the molecule `Cc1ccc(C)[nH]1`, the boiling point was found to be 171 °C, the log10 vapour pressure (mmHg) was -0.0942 and the melting point stood at 7.7 °C.
In turn, `Cc1ccc(CO)c(C)c1` yielded a boiling point of 232 °C and a melting point of 22 °C.
As to `CC(C)CN`, the boiling point is 68.5 °C, the log10 vapour pressure (mmHg) was 2.14, the melting point is -85 °C and the ready biodegradability result is reported as “readily biodegradable”.
Regarding `Clc1cccc(Cl)c1-c1c(Cl)cccc1Cl`, the log10 Henry constant (atm·m³/mol) was -3.7 and the log10 Koc (L/kg) was 4.9.
For `O=c1ccn([C@H]2CC[C@@H](CO)O2)c(=O)[nH]1`, the melting point is 128 °C.
For the molecule `CCCCCCCCCCCCCCCCCC(=O)OCC(O)[C@H]1OC[C@@H](O)[C@@H]1O` (stereo partly drawn), the ready biodegradability result is listed as “readily biodegradable”.
The molecule `CCc1cnc(C2=NC(C)(C(C)C)C(=O)N2)c(C(=O)O)c1` (stereo not drawn) came in with a log10 Koc (L/kg) of 0.85 and a melting point of 171 °C.
Consider `CCCC(N)CCC`, for which the boiling point is 140 °C.
For the molecule `O=C(Oc1cccc2cccnc12)c1ccccc1`, the melting point was 119 °C and the ready biodegradability entry is on record as “readily biodegradable”.
`ClCC1CC1`: the boiling point worked out at 88 °C and the melting point was -90.9 °C.

Still in this data set, the particulars now being: fish.
For the molecule `COCN(COC)c1nc(N(COC)COC)nc(N(COC)COC)n1`, the log10 BCF is 0.54.
Regarding `Clc1cc2ccccc2c2ccccc12`, the log10 BCF is 3.49 and the log10 biotransformation half-life (days) worked out at 1.8.
In the case of `Oc1c(Cl)cc(Cl)c(Cl)c1Cl`, the log10 BCF was found to be 2.3.
Take `Nc1ccc(Cc2ccc(N)c(Cl)c2)cc1Cl`: the log10 BCF was found to be 2.24 and the log10 biotransformation half-life (days) is -0.15.
`O=S1(=O)CCCC1`: the log10 BCF stood at 0.85.
On to `BrCC(CBr)(CBr)CBr`, for which the log10 BCF is 1.94 and the log10 biotransformation half-life (days) was determined as 0.76.
Taken in the same sequence, the figures for `c1ccc2c(c1)Cc1ccccc1-2` were 2.72 and 0.7.
The molecule `CCOP(=S)(OCC)ON=C(C#N)c1ccccc1` yielded a log10 biotransformation half-life (days) of 0.84.
Turning to `Clc1cccc(Cl)c1-c1c(Cl)cccc1Cl`, the log10 BCF was 3.85.

The values above are taken from the OPERA property sets (Mansouri et al. 2018).
